Entries after “also recorded” stand apart in the source; their conditions may differ.
How the values were obtained:
Jurkat cells = test: Fluorescent microscopy of DDL uptake by Jurkat cells induced to undergo apoptosis by anti-Fas antibody; assay type: cell-based, human
Method: FIG. 1: Jurkat cells were treated with anti-Fas antibody (0.1 μg/ml) for three hours. As a result, a marked percentage of the cells became apoptotic (i.e., PLS-activated cells). For subsequent inhibition of PLS, culture was then treated for 30 minutes with EGTA (1 mM) and BAPTA (20 μM), (i.e., PLS-inhibited culture). Both cultures were treated with DDL (1 μM, 2 minutes) and visualized by a fluorescent microscope (Olympus):
Cultured Jurkat cells (human adult T cell leukemia cells) were grown in suspension in RPMI medium (Beit-Haemek, Israel), supplemented with 10% of fetal calf serum (FCS), 4 mM of L-glutamine, 1 mM of sodium pyruvate, 1 mM CaCl2 and antibiotics (100 units/ml penicilin; 100 μg/ml streptomycin and 12.5 units/ml of nystatin). Prior to induction of apoptosis, medium was replaced with HBS buffer (10 mM HEPES; 140 mM NaCl, 1 mM CaCl). Apoptosis was then triggered by treatment with anti-Fas Ab (0.1 μg/ml; 3 hrs).
Such a procedure culminates in accumulation of a large percentage of apoptotic cells within the culture. Culture was then incubated with DDL at a final concentration of 1 μM for 5 minutes, and then taken immediately for fluorescent microscopy [Olympus fluorescent microscope, model IX70, excitation wavelength of 360 nm, emission at 530 nm].
Modulation of PLS activity was achieved by the calcium depletion-repletion procedure (Momchilova, A., et al., 2000). Inhibition of PLS by Ca^2+-deprivation was performed by cell incubation with the extra-and intracellular chelating agents EGTA (Ethylen glycol-bis (β-aminoethyl ether)-N,N,N′-tetraacetic acid, 1 mM) and BAPTA-AM ([1,2-bis(o-Amino-phenoxy) ethane-N,N,N′,N′-tetraacetic acid tetra-(acetoxymethyl) ester, 20 μM, respectively. Such a procedure eliminates any traces of Ca^2+ possibly present either intra- or extra-cellularly. Subsequent to the induction of apoptosis for three hours, cells were subjected to said PLS inhibition for 30 minutes. Cells were then incubated with DDL for 5 minutes, and subjected to fluorescent microscopy.
For re-activation of PLS, the EGTA/BAPTA-treated cells were now treated with CaCl (1 mM) and calcium ionophore A23187 (2 μM, Calbiochem, Darmstadt, Germany), thus elevating ambient Ca^2+ levels.

HeLa S3 cells = test: Flow-cytometric (FACS) analysis of DDL binding to apoptotic cells in aged HeLa culture; assay type: cell-based; settings: HeLa aged 96 h
Method: FIG. 2: HeLa cells were allowed to age by incubating the culture for 96 hours without exchange of the growth medium. As a result, a marked percentage of the cells became apoptotic. Cells were then incubated with DDL (1 μM, 2 minutes) under three different conditions: PLS-activation; PLS-inhibition; and reactivation of inhibited-PLS as defined above. Shown is quantitative analysis of fluorescence intensity (geomean) values.
For this purpose, cultured, aged HeLa S3 cells (ATCC CCL-2.2) were grown in Dulbecco's modified Eagle's medium (DMEM), containing CaCl (1.8 mM) and supplemented with 2 mM of L-glutamine; 100 units/ml of penicillin; 100 μg/ml of streptomycin; 12.5 units/ml of nystatin and 10% of fetal calf serum (FCS). Cells were seeded at a density of 5×10^6 cells/plate on a […] culture plates in a volume of 10 ml, and were allowed to age in culture for 96 hours without exchange of the growing medium. Such a procedure culminates in a large percentage of apoptotic cells within the culture. Culture (1×10^7/ml) was then incubated with DDL at a final concentration of 5 μM in HBS for 5 minutes, and taken immediately for FACS analysis for detection of bound DDL, using Becton-Dickinson cell sorter and CellQuest software. Excitation was at 360 nm and emission was measured at 530 nm.
Three different conditions were examined (FIG. 2): PLS-activation by the apoptotic process, PLS-inhibition; and reactivation of inhibited-PLS.

With CN(C)c1cccc2c(S(=O)(=O)NCCCCC(NS(=O)(=O)c3cccc4c(N(C)C)cccc34)C(=O)O)cccc12 (centres unmarked) [DDL] the “DDL uptake after re-activation of PLS” value (Jurkat cells; EGTA/BAPTA-treated cells + Ca2+ 1 mM + calcium ionophore A23187 2 μM) was “re-acquisition of a strong DDL uptake; also recorded: fast, selective and marked uptake”, the “DDL uptake (fluorescence) by apoptotic cells” value (Jurkat cells; PLS-activated culture, anti-Fas Ab 0.1 μg/ml 3 h, DDL 1 μM) was “Some of the cells manifest DDL binding; also recorded: Selective and fast uptake” and the “Intracellular localisation of DDL fluorescence” value (Jurkat cells; apoptotic cells) was “staining the cytoplasm but not the nucleus; also recorded: in the cytoplasm of those cells but not within the nuclei”. The “DDL uptake (fluorescence intensity) after PLS inhibition” value (Jurkat cells; apoptotic cells, Ca2+-deprivation: EGTA 1 mM + BAPTA 20 μM, 30 min, DDL 1 μM) was “marked reduction in the intensity of DDL-binding; also recorded: marked decrease in DDL uptake”, the “DDL binding by intact cells not undergoing apoptosis” value (Jurkat cells; same culture, DDL 1 μM) was “did not bind manifest significant DDL” and the “DDL binding (fluorescence shift) after reactivation of PLS” value (HeLa S3 cells; Ca2+ re-administration) was “restored this shift”. The “DDL binding (fluorescence shift) after PLS inhibition” value (HeLa S3 cells; Ca2+-deprivation) was “almost completely abolished this shift” and the “DDL binding (fluorescence shift), PLS-activated apoptotic cells” value (HeLa S3 cells; PLS-activation by the apoptotic process) was “distinct shift to higher fluorescence levels”.
